We go through two compounds from patent US12116344B2, “Crystalline forms of a pharmaceutical compound” (Azafaros B.V., priority 2020, dated 2024).

Converted amounts (≈) assume the structure as drawn. Like-named read-outs stand apart in the source and are kept apart here.

The term solubility denotes how much of the substance goes into solution per volume.

Holding throughout (type): physicochemical
Data set [1] can be described thus: Approximate solubility by incremental solvent addition with shaking/sonication. As to conditions: for solubility: thermodynamic from solid, about 25° C., approximate, read-out: Solubility S. Here is the method:
Approximate solubilities were determined by incremental addition of solvent to about 10 mg the compound and subsequent shaking and/or sonication for a short period of time. If the substance was not dissolved by addition of a total of at least 10 ml solvent, the solubility is indicated as <1 mg/ml. The experiments were conducted at about 25° C.
Compound (I) was purified using a silica gel column to remove borate esters followed by a short equilibration in acetonitrile (about 1-5 min). Solubility of purified compound (I) in acetonitrile was determined to be between 5 mg/mL and 8 mg/mL. These values were determined by adding small aliquots of solvent to −10 mg of solid compound (I) and shaking/sonicating for a short period of time at room temperature (about 25° C.).

The nature of data set [2]: Dynamic vapour sorption (DVS), hygroscopicity. Here is the method:
Dynamic vapour sorption (DVS) measurements were performed with an SPS11-100n “Sorptions Prüfsystem” from ProUmid (formerly “Projekt Messtechnik”), August-Nagel-Str. 23, 89079 Ulm (Germany). About 5 mg to 20 mg of sample was put into an aluminum sample pan. Humidity change rates of 5% per hour were used. The applied measurement program can be described as follows:
The sample was placed on an aluminium or platinum holder on top of a microbalance and allowed to equilibrate at a relative humidity (RH) of 50% before starting the pre-defined humidity programs: • (1) 2 h at 50% RH • (2) 50→0% RH (5%/h); 5 h at 0% RH • (3) 0→95% RH (5%/h); 5 h at 95% RH • (4) 95→0% RH (5%/h); 5 h at 0% RH • (5) 0→95% RH (5%/h); 5 h at 95% RH • (6) 95→50% RH (5%/h); 2 h at 50% RH

A short description of data set [3]: Stability of the crystalline form (transition of Form 2 into Form 3). As to conditions: Form 2 transitions into Form 3 above around 30° C. in about 1-5 min, or in solvent for more than 5 min at around 25° C. The procedure: Alternatively, Form 2 transitioned into Form 3 upon equilibration in solvent (e.g. acetone) for more than 5 min at around 25° C.

For the compound `OC[C@H]1[C@@H](O)[C@H](O)[C@@H](O)CN1CCCCCOCc1ccc(-c2ccccc2)c(F)c1` [Form 2], the Solubility in water in data set [1] (Form 2 crystalline form, summary Table 3) is on record as roughly 80 mg/mL (≈ 185 mM). Further, the “Hygroscopicity (description)” value in data set [2] is “hygroscopic”. Also, the “Stability of the crystalline form” value in data set [3] was “low stability”.

With `OC[C@H]1[C@@H](O)[C@H](O)[C@@H](O)CN1CCCCCOCc1ccc(-c2ccccc2)c(F)c1` [compound (I)], the solubility was 13 to 15 mg/mL (≈ 30 to 34.6 mM) in data set [1] (organic solvent or mixture, 1-Propanol); 19 to 20 mg/mL (≈ 43.8 to 46.1 mM) in data set [1] (organic solvent or mixture, 2-Propanol); greater than 120 mg/mL in data set [1] (organic solvent or mixture, Acetic acid); 55 to 73 mg/mL (≈ 127 to 168 mM) in data set [1] (organic solvent or mixture, Acetone); 5 to 8 mg/mL (≈ 11.5 to 18.5 mM) in data set [1] (organic solvent or mixture, Acetonitrile); greater than 160 mg/mL in data set [1] (organic solvent or mixture, DCM). In addition, the solubility in data set [1] (organic solvent or mixture, Ethanol) was 40 to 53 mg/mL (≈ 92.3 to 122 mM); in data set [1] (organic solvent or mixture, Ethyl acetate) it was 12 to 13 mg/mL (≈ 27.7 to 30 mM); in data set [1] (organic solvent or mixture, MEK), 40 to 50 mg/mL (≈ 92.3 to 115 mM); in data set [1] (organic solvent or mixture, Methanol) it was greater than 160 mg/mL; in data set [1] (organic solvent or mixture, THF) it was greater than 200 mg/mL; in data set [1] (Water), roughly 80 mg/mL (≈ 185 mM).
